Data: patent publication US20030138946A1

Key:
[1] = test system: 2C+ T-cells; assay: Rosetting of 2C+ T-cells with L^d-bearing supports plus peptide; type: cell-based, mouse; settings: peptide 0.02 mM
Procedure: Rosetting experiments verified that the attached MHC molecules interacted functionally with T-cells. Drosophila S2 cells expressing L^d, L^d-coated SRBC were incubated with QL9 peptide (0.02 mM) or an irrelevant peptide (MCMV, 0.02 mM) for 30 minutes on ice; 2C+ T-cells were then added, the proportion being 10 2C+ T-cells for 1 Drosophila S2 cell, or 10 SRBC for 1 2C+ T-cell; the mixture was pelleted and kept on ice for at least 30 min. Cells were then carefully resuspended and rosettes were counted, a rosette being a Drosophila S2 cell bound to at least 3 2C+ T-cells, or a 2C+ T-cell bound to at least 3 SRBC. […] Typically, 30-40% of the lymphocytes were included in rosettes when QL9 peptide was added.
Rosetting experiments verified that the attached MHC molecules on latex beads interacted functionally with T-cells. Drosophila S2 cells expressing recombinant L^d and L^d-coated latex beads were incubated with QL9 peptide (0.02 mM) or an irrelevant peptide (MCMV, 0.02 mM) for 30 minutes on ice; 2C+ T-cells were then added, the proportion being 10 2C+ T-cells for 1 Drosophila S2 cell, or […]; the mixture was pelleted and kept on ice for at least 30 min. Cells were then carefully resuspended and rosettes were counted, a rosette being a Drosophila S2 cell bound to at least 3 2C+ T-cells, or a 2C+ T-cell bound to at least 3 latex beads. […]

[2] = test system: 2C+ T-cells; type: cell-based, mouse

“Gln-Leu-Ser-Pro-Phe-Pro-Phe-Asp-Leu [QL9]” was tested, and the “lymphocytes included in rosettes” value ([1]; Drosophila S2 cells expressing L^d or L^d-coated SRBC) was 30-40%, the “lymphocytes included in rosettes” value ([1]; Drosophila S2 cells expressing L^d or L^d-coated latex beads) was 30-40% and the thymidine incorporation [2] was “above 100,000 cpm per well”.
